In patent US20260094269A1, “DIAGNOSIS AND MONITORING OF NEURODEGENERATIVE DISEASES” (MACQUARIE UNIVERSITY, priority 2019, published 2026):

System: monocytes
Test: Hyperspectral autofluorescence imaging of monocytes isolated from treated ALS / motor neuron disease patients (LDA projection, response score)
Format: in vivo, human
Text: In the particular implementation presented here the “response vectors” were obtained using the following procedure. First, a discriminatory model was developed using a subset of the data based on two groups, the first group comprising the controls C1 C4 and two sets of patient data P2 and P6, while the second group comprising P1, P3, and P4. Second, all data from FIG. 4 was projected on the direction joining the centres of the two cell data clusters for the two groups defined above and a one-dimensional response vector was determined by a projection of each original cell vector from FIG. 4. These one-dimensional response vectors for all cells were presented in a box plot format (each symbol indicates a response vector for a different cell).
The box plots in FIGS. 5 and 6 comprise rectangles with three shades of grey. The thin line in the centre of the rectangle has the darkest shade of grey and represents the median value; the two stripes immediately adjacent to the centre line have the lightest shade of grey and represent the 95% confidence region (1.96×SEM); and the two stripes nearest to the ends of the rectangle have an intermediate shade of grey and represent the first standard deviation. If the light-grey regions of a cluster are not horizontally overlapping, one can be confident of having measured a difference. The values in the plot were shifted by a value of 1.3358, just for sake of placing the controls about zero, although this is an arbitrary shift and, in other examples, the values may be shifted by other amounts. Clusters may be classified according to their mean values: high values may be attributed to “diseased and unresponsive” state, intermediate values may be attributed to “normal”, and low values compared to normal may be interpreted as “drug affected”.
Blood samples were collected using Vacutainer® CPT™ Cell Preparation Tube (BD Australia, catalogue: 362760). 4 mls of whole blood from controls and MND patients were collected into the CPT tube via veinpuncture technique, using the standard technique for BD Vacutainer® Evacuated blood collection tubes. After collection, the tube/blood samples were centrifuged at room temperature (18-25° C.) in a horizontal rotor centrifuge for a minimum of 20 minutes at 1500 to 1800 RCF. After centrifugation, mononuclear cells and platelets located in a whitish layer (Buffy layer just under the plasma layer) were collected using a Pasteur pipette and transferred to a 15 mL size conical centrifuge tube.
Monocytes were isolated from collected buffy layer using a Pan Monocyte Isolation Kit, human (Miltenyi Biotec, catalogue: 130-096-537). The Monocyte Isolation Kit is an indirect magnetic labelling system for the isolation of untouched monocytes from human peripheral blood mononuclear cells (PBMCs). Non-monocytes, i.e. T cells, NK cells, B cells, dendritic cells and basophils, are indirectly magnetically labeled using a cocktail of biotin-conjugated antibodies against CD3, CD7, […], CD19, CD56, CD123 and Glycophorin A, and Anti-Biotin MicroBeads. Isolation of highly pure unlabelled monocytes is achieved by depletion of the magnetically labeled cells. […]

| SMILES | clustering of monocytes (autofluorescence spectral space) relative to healthy control (ALS Patient 1, before (T0) vs three weeks after (T1) start of treatment, FIG. 5(a)) | response score (one-dimensional projection), longitudinal testing (ALS Patients 1 and 2, T0 vs T1-T3 over the course of treatment, FIG. 5(c)) | position of treated patients' cell data in LDA projection (control space vs patient space) (FIG. 4, all patients and controls C1-C4) | position of patient cell data in LDA projection over consecutive tests (FIG. 4, patient (P5), Test1 to Test4) | range of response scores compared with healthy controls (eight other ALS patients (Patients 3-10), FIG. 6) |
| --- | --- | --- | --- | --- | --- |
| CN=C([S-])N/N=C(C)/C(C)=N/NC([S-])=NC.[Cu+2] [CuATSM, Copper ATSM] | normalised towards the healthy cells | statistically strong drug responses from time T1 onwards | appear in the control space or to the left hand side | progressively moving left (and less component 2) into the control/treated space | – |
| Nc1nc2ccc(OC(F)(F)F)cc2s1 [Riluzole] | – | – | – | – | much wider range of response scores than healthy controls |
